According to US9271978B2 (Zenith Epigenetics Corp., priority 2012, dated 2016):

Tests used:
Design in all cases: key: Active: Compounds with an IC50 value less than 30 μM were deemed to be active.; Not Active: Compounds with an IC50 value less than 30 μM were deemed to be active
[1] = biological target: T1, Brd4 bromodomain 1 (BRD4(1)) (Homo sapiens, UniProt O60885); test: Inhibition of tetra-acetylated histone H4 binding to Brd4 bromodomain 1 (TR-FRET); details: tetra-acetylated histone H4 peptide, active = IC50 <30 μM
T1 construct: Illustrative results with the first bromodomain of Brd4; made in house; host or cells: E. coli BL21 (DE3)
Method in brief: (§1)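 N-terminally His-tagged bromodomains (200 nM), expressed in E. coli, were incubated with biotinylated tetra-acetylated histone H4 peptide (25-50 nM), Eu-cryptate streptavidin and XL665 anti-His antibody in HEPES pH 7.4 buffer with KF, 0.2% DMSO, 2 h at room temperature. Inhibition read as decreased 665/620 nm TR-FRET; IC50 from dose-response curves.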

[2] = biological target: T2, second bromodomain of Brd2 (BRD2(2)) (Homo sapiens, UniProt P25440); test: Inhibition of tetra-acetylated histone H4 binding to Brd2 bromodomain 2 (TR-FRET); details: tetra-acetylated histone H4 peptide, active = IC50 <30 μM
T2 construct: made in house; host or cells: E. coli BL21 (DE3)
T2 sequence (P25440 344-453 limits assumed): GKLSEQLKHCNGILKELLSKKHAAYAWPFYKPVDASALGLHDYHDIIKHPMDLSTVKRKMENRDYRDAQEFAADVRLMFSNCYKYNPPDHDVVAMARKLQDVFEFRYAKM
Method in brief: as §1

[3] = test system: c-myc; test: Inhibition of c-myc expression in MV4-11 cells (mRNA, real-time PCR); assay type: cell-based; details: Human AML MV4-11 cells, 3 h incubation
Method: MV4-11 cells (2.5×10^4 cells) were plated in 96 well U-bottom plates with test compound or DMSO (0.1%), and incubated for 3 h at 37° C. Cells were then harvested by centrifugation, lysed, and mRNA was isolated using the mRNA catcher plus kit (Invitrogen). Reverse transcription of the mRNA and duplex amplification of the c-myc and cyclophilin cDNAs was performed using the RNA Ultrasense kit (Invitrogen) and a ViiA7 real-time PCR machine (Applied Biosystems). IC50 values were determined from a dose response curve.

[4] = test system: human AML MV-4-11 (CRL-9591) cells; test: Inhibition of cell proliferation in MV4-11 cells; assay type: cell-based; details: human AML MV-4-11 cells, 72 h; active = IC50 <30 μM
Method: MV4-11 cells: 96-well plates were seeded with 5×10^4 cells per well of exponentially growing human AML MV-4-11 (CRL-9591) cells and immediately treated with two-fold dilutions of test compounds, ranging from 30 μM to 0.2 μM. Triplicate wells were used for each concentration, as well as a media only and three DMSO control wells. The cells and compounds were incubated at 37° C., 5% CO2 for 72 h before adding 20 μL of the CellTiter Aqueous One Solution (Promega) to each well and incubating at 37° C., 5% CO2 for an additional 3-4 h. The absorbance was taken at 490 nm in a spectrophotometer and the percentage of proliferation relative to DMSO-treated cells was calculated after correction from the blank well. IC50 were calculated using the GraphPad Prism software.

[5] = test system: hIL-6 mRNA; test: Inhibition of hIL-6 mRNA transcription in U937 cells; assay type: cell-based, human; details: LPS stimulation, active = IC50 <30 μM
Method in brief: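 U937 cells differentiated 3 days with 60 ng/mL PMA, pretreated 1 h with compound, then stimulated with 1 ug/mL E. coli LPS for 3 h at 37° C. hIL-6 mRNA quantified by one-step qRT-PCR, Ct normalized to internal control, expressed as fold induction relative to control.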

FRET activity (IC50 <30 μM) BRD4(1) [1] | FRET activity (IC50 <30 μM) BRD2(2) [2] | c-myc activity (IC50 <30 μM) [3] | Cell Proliferation activity (IC50 <30 μM) [4] | IL-6 activity (IC50 <30 μM) [5] | Compound
Active | Active | Active | Not Active | Active | Cc1noc(C)c1-c1cc(C)c(=O)n(Cc2ccccc2)n1 [Example 21, 2-Benzyl-6-(3,5-dimethylisoxazol-4-yl)-4-methylpyridazin-3(2H)-one]
Active | Active | Active | Active | Active | Cc1ccccc1Cn1nc(-c2c(C)noc2C)ccc1=O [Example 28]
Active | Active | Not Active | Active | Active | Cc1cccc(Cn2nc(-c3c(C)noc3C)ccc2=O)c1 [Example 30, 6-(3,5-Dimethylisoxazol-4-yl)-2-(3-methylbenzyl)pyridazin-3(2H)-one]
Active | Active | Active | Active | Active | Cc1noc(C)c1-c1cc(F)c(=O)n(Cc2ccccc2)c1 [Example 63, 1-Benzyl-5-(3,5-dimethylisoxazol-4-yl)-3-fluoropyridin-2(1H)-one]
Active | Active | Active | Active | Active | Cc1noc(C)c1-c1cc(Cl)c(=O)n(Cc2ccccc2)c1 [Example 64, 1-Benzyl-3-chloro-5-(3,5-dimethylisoxazol-4-yl)pyridin-2(1H)-one]
Active | Active | Not Active | Not Active | Active | Cc1noc(C)c1-c1cc(C)c(=O)n(Cc2ccccc2F)n1 [Example 84, 6-(3,5-Dimethylisoxazol-4-yl)-2-(2-fluorobenzyl)-4-methylpyridazin-3(2H)-one]

More lines, now with the values behind:

Compound | FRET activity (IC50 <30 μM) BRD4(1) [1] | FRET activity (IC50 <30 μM) BRD2(2) [2] | c-myc activity (IC50 <30 μM) [3] | Cell Proliferation activity (IC50 <30 μM) [4] | IL-6 activity (IC50 <30 μM) [5]
COc1cc(-c2ccc(=O)n(Cc3cccc(C#N)c3)n2)cc(OC)c1OC [Example 15, 3-((6-Oxo-3-(3,4,5-trimethoxyphenyl)pyridazin-1(6H)-yl)methyl)benzonitrile] | Active | Active | Not Active | Not Active | Active
Cc1noc(C)c1-c1ccc(=O)n(Cc2ccccc2C#N)n1 [Example 24, 2-((3-(3,5-Dimethylisoxazol-4-yl)-6-oxopyridazin-1(6H)-yl)methyl)benzonitrile] | Active | Active | Not Active | Active | Not Active
Cc1noc(C)c1-c1ccc(=O)n(Cc2ccc(Cl)cc2)n1 [Example 25, 2-(4-Chlorobenzyl)-6-(3,5-dimethylisoxazol-4-yl)pyridazin-3(2H)-one] | Active | Active | Active | Active | Active
Cc1ccc(Cn2nc(-c3c(C)noc3C)ccc2=O)cc1 [Example 29, 6-(3,5-Dimethylisoxazol-4-yl)-2-(4-methylbenzyl)pyridazin-3(2H)-one] | Active | Active | Active | Active | Active
Cc1noc(C)c1-c1ccc(=O)n(C(C)c2ccccc2C(F)(F)F)n1 (centres unmarked) [Example 34, 6-(3,5-Dimethylisoxazol-4-yl)-2-(1-(2-(trifluoromethyl)phenyl)ethyl)pyridazin-3(2H)-one] | Active | Active | Active | Active | Active
Cc1noc(C)c1-c1ccc(=O)n(Cc2cccc(F)c2)c1 [Example 42, 5-(3,5-Dimethylisoxazol-4-yl)-1-(3-fluorobenzyl)pyridin-2(1H)-one] | Active | Active | Active | Active | Active
COc1ccc(Nc2ccc(=O)n(Cc3ccccc3)c2)cc1OC [Example 65, 1-Benzyl-5-((3,4-dimethoxyphenyl)amino)pyridin-2(1H)-one] | Active | Active | Active | Active | Active
Cc1noc(C)c1-c1cc(-c2ccc(F)cc2)c(=O)n(Cc2ccccc2)c1 [Example 70, 1-Benzyl-5-(3,5-dimethylisoxazol-4-yl)-3-(4-fluorophenyl)pyridin-2(1H)-one] | Active | Active | Active | Active | Active
COc1cccc(Cn2cc(-c3c(C)noc3C)ccc2=O)c1 [Example 78, 5-(3,5-Dimethylisoxazol-4-yl)-1-(3-methoxybenzyl)pyridin-2(1H)-one] | Active | Active | Active | Active | Active
Cc1noc(C)c1-c1ccc(=O)n(Cc2ccc(C(F)(F)F)cc2)n1 [Example 91, 6-(3,5-Dimethylisoxazol-4-yl)-2-(4-(trifluoromethyl)benzyl)pyridazin-3(2H)-one] | Active | Active | Not Active | Active | Not Active
Cc1noc(C)c1-c1ccc(=O)n(Cc2ccccc2F)n1 [Example 93, 6-(3,5-Dimethylisoxazol-4-yl)-2-(2-fluorobenzyl)pyridazin-3(2H)-one] | Active | Active | Not Active | Active | Not Active
Cc1noc(C)c1-c1ccc(=O)n(Cc2ccccc2C(F)(F)F)n1 [Example 94, 6-(3,5-Dimethylisoxazol-4-yl)-2-(2-(trifluoromethyl)benzyl)pyridazin-3(2H)-one] | Active | Active | Not Active | Active | Not Active
Cc1noc(C)c1-c1ccc(=O)n(C(C)c2ccccc2F)n1 (centres unmarked) [Example 95, 6-(3,5-Dimethylisoxazol-4-yl)-2-(1-(2-fluorophenyl)ethyl)pyridazin-3(2H)-one] | Active | Active | Not Active | Not Active | Active
